In paper PMC6271219, “Antiprotozoal Activity of Achillea ptarmica (Asteraceae) and Its Main Alkamide Constituents” (Molecules, 2014):
In brackets after ≈: the same amount, converted by molar mass. Where two headings read alike, the source gives them in different places.

Key:
[1] = tested on: Plasmodium falciparum NF54 strain; assay: In vitro antiplasmodial assay, P. falciparum NF54 strain; assay type: cell-based; details: for IC50: Plasmodium falciparum; for SI Pf: ratio of cytotoxic (L6) over antiprotozoal IC50, Pf NF54 strain
Procedure: (§1) All fractions were analyzed by UHPLC/+ESI QTOF MSMS and representative samples chosen for re-evaluation of their antiprotozoal activity. At this stage, each of the chosen fractions was tested for percent growth inhibitory activity at two concentrations (see Table 2).
(§2) The assays and the IC50 determinations were performed essentially as described previously.

Leishmania donovani = assay: In vitro antiprotozoal assay against Leishmania donovani (Ldo); assay type: cell-based
Procedure: as §1, §2

[2] = tested on: Trypanosoma brucei rhodesiense; assay: In vitro antiprotozoal assay against T. brucei rhodesiense (Tbr); assay type: cell-based; details: for SI Tbr: ratio of cytotoxic (L6) over antiprotozoal IC50
Procedure: as §1, §2

T. cruzi = assay: In vitro antiprotozoal assay against T. cruzi (Tcr); assay type: cell-based; details: Trypanosoma cruzi
Procedure: as §1, §2

[3] = tested on: rat skeletal myoblasts (L6 cell line); assay: Cytotoxicity against rat skeletal myoblasts (L6 cell line); assay type: cell-based
Procedure: as §2

K1 strain of Pf [4] = tested on: K1 strain of Pf; set-up: method as in PMID 2236290; details: cited from earlier work
[5] = tested on: Plasmodium falciparum K1 strain; assay: In vitro antiplasmodial assay, P. falciparum K1 strain; assay type: cell-based; details: K1, read-out: IC50 Pf (value in brackets)
Procedure: Tests for antiprotozoal activities were carried out using established standard protocols at the Swiss Tropical and Public Health Institute (Swiss TPH, Basel, Switzerland). The assays and the IC50 determinations were performed essentially as described previously.

K1 strain of Pf [6] = tested on: K1 strain of Pf; set-up: method as in PMID 15234750; details: cited from earlier work
[7] = NF54, read-out: IC50 Pf (value in brackets)
[8] = Trypanosoma brucei, RHODESIENSE, in vitro, means of two independent determinations ± deviation from mean, read-out: IC50 Tbr
[9] = Trypanosoma brucei, RHODESIENSE, in vitro, pure compounds, read-out: IC50 Tbr (value in brackets) (converted)
[10] = L6, read-out: IC50 Tox. L6 (value in brackets)
[11] = NF54, NF54 strain, pure compounds, read-out: IC50 Pf (value in brackets) (converted)
[12] = compared with A. ptarmica crude extract
[13] = in vitro, means of two independent determinations ± deviation from mean, read-out: IC50 Ldo
[14] = in vitro, pure compounds, read-out: IC50 Ldo (value in brackets) (converted)
[15] = in vitro, means of two independent determinations ± deviation from mean, read-out: IC50 Tcr
[16] = in vitro, pure compounds, read-out: IC50 Tcr (value in brackets) (converted)
[17] = cytotoxicity, L6 cell line, means of two independent determinations ± deviation from mean, read-out: IC50 Tox. L6
[18] = cytotoxicity, L6 cell line, pure compounds, read-out: IC50 Tox. L6 (value in brackets) (converted)

CCCC#CC#CCC/C=C/C=C/C(=O)NCC(C)C [Anacycline (6), (E,E)-2,4-tetradecadien-8,10-diynoic acid isobutylamide]
IC50 ([1]; NF54, read-out: IC50 Pf): 7.23 ± 0.4 µg/mL | IC50 [1, 7]: 26.7 µM | SI Pf [1]: 6.74 | IC50 (Leishmania donovani; read-out: IC50 Ldo): > 100 µg/mL | IC50 (Leishmania donovani; read-out: IC50 Ldo (value in brackets)): > 369 µM | IC50 [2, 8]: 5.12 ± 0.95 µg/mL | IC50 [2, 9]: 18.9 µM | SI Tbr [2]: 9.5 | IC50 (T. cruzi; read-out: IC50 Tcr): 42 ± 4.5 µg/mL | IC50 (T. cruzi; read-out: IC50 Tcr (value in brackets)): 155 µM | IC50 ([3]; L6, read-out: IC50 Tox. L6): 48.7 ± 1.1 µg/mL | IC50 [3, 10]: 18 µM

CCCCCC=CC=CC(=O)NCC(C)C [N-isobutyldeca-2,4-diene]
IC50 against Pf (K1 strain of Pf [4]): 5.4 µg/mL (≈ 24.2 µM)

CCN(CC)CCCC(C)Nc1ccnc2cc(Cl)ccc12 (centres unmarked) [Chloroquine, reference compound]
IC50 [1, 7]: 0.009 µM | IC50 [5]: 0.25 µM

CCCCC/C=C/C=C/C(=O)NCC(C)C [Pellitorine (1), (E,E)-2,4-decadienoic acid isobutylamide]
IC50 Pf ([1]; NF54 strain, means of two independent determinations ± deviation from mean): 3.3 µg/mL (≈ 14.8 µM) | IC50 ([1]; NF54, NF54 strain, means of two independent determinations ± deviation from mean, read-out: IC50 Pf): 3.26 µg/mL | IC50 [1, 11]: 14.6 µM | Antiplasmodial activity, fold higher than that of the crude extract [1, 12]: about 2 fold | SI Pf [1]: 13.85 | IC50 (Leishmania donovani; [13]): 5.96 ± 0.16 µg/mL | IC50 (Leishmania donovani; [14]): 26.7 µM | IC50 [2, 8]: 5.35 ± 0.54 µg/mL | IC50 [2, 9]: 24 µM | SI Tbr [2]: 8.41 | IC50 (T. cruzi; [15]): 8.45 ± 1.08 µg/mL | IC50 (T. cruzi; [16]): 37.9 µM | Concentration up to which reported inactive against Pf (K1 strain of Pf [6]): > 20 µg/mL | IC50 [3, 17]: 45.5 ± 9.1 µg/mL | IC50 [3, 18]: 202 µM

O=C(Cn1ccnc1[N+](=O)[O-])NCc1ccccc1 [Benznidazole, reference compound]
IC50 (T. cruzi; [15]): 0.439 ± 0.094 µg/mL | IC50 (T. cruzi; [16]): 1.69 µM

C/C=C\CC/C=C/C=C/C(=O)NCC(C)C [8,9-Z-Dehydropellitorine (2), (E,E,Z)-2,4,8-decatrienoic acid isobutylamide]
IC50 [1, 11]: 29.3 µM | SI Pf [1]: 2.55 | IC50 (Leishmania donovani; [13]): 5.01 ± 0.12 µg/mL | IC50 (Leishmania donovani; [14]): 22.7 µM | IC50 [2, 8]: 2 ± 0.06 µg/mL | IC50 [2, 9]: 9 µM | Anti-Tbr activity, fold lower in comparison with the crude extract [2, 12]: 3 fold | Selectivity index (Tbr), fold lower than that of the total extract ([2]; compared with A. ptarmica total extract): about 5 fold | IC50 ([2]; in vitro, pure compounds, read-out: IC50 Tbr (value in brackets) (converted)): 9.1 µM | SI Tbr [2]: 8.25 | IC50 (T. cruzi; [15]): 14.2 ± 2.5 µg/mL | IC50 (T. cruzi; [16]): 64.3 µM | IC50 [3, 17]: 16.5 ± 0.2 µg/mL | IC50 [3, 18]: 74.7 µM

COc1cc([C@@H]2c3cc4c(cc3[C@H](O)[C@H]3COC(=O)[C@H]23)OCO4)cc(OC)c1OC [Podophyllotoxin, reference compound]
IC50 ([3]; L6, read-out: IC50 Tox. L6): 0.008 ± 0.001 µg/mL | IC50 [3, 10]: 0.019 µM

Nc1nc(N)nc(Nc2ccc([As]3SCC(CO)S3)cc2)n1 (centres unmarked) [Melarsoprol, reference compound]
IC50 ([2]; Trypanosoma brucei, RHODESIENSE, read-out: IC50 Tbr): 0.003 ± 0.001 µg/mL | IC50 ([2]; Trypanosoma brucei, RHODESIENSE, read-out: IC50 Tbr (value in brackets)): 0.008 µM
